Measurements taken from US11629144B2, “Crystal form of monomethanesulfonate of deuterated 3-(4,5-substituted aminopyrimidine)phenyl compound and preparation method therefor” (NANJING CHUANGTE PHARMACEUTICAL TECHNOLOGY CO., LTD., priority 2018, dated 2023).
“Also recorded” adds a separate entry of the source. Each block holds one molecule with its values, some of them ahead of it.

How the values were obtained:
Assay type in all cases: physicochemical
[1] = Crystal influence factor test (high temperature, high humidity, illumination, 15 days); conditions: high-humidity and illumination conditions for 15 days
Text: 2. Crystal Influence Factor Test

[2] = Stability differential scanning calorimetry (DSC) test; conditions: rate of temperature rise 10.00° C./min
Method: 1. Stability Differential Scanning Calorimetry (DSC) Test
Instrument: NETZSCH DSC 204 type differential thermal analyzer
Rate of temperature rise: 10.00° C./min

Accelerated lofting test = assay: Accelerated lofting test; parameters: Maximum individual impurity / Loss on drying: unit not given here; conditions: 40±2° C., RH 75%±5%; for Loss on drying: limit ≤1.0; for Maximum individual impurity: limit ≤2.50; for Total impurity: limit ≤4.0%; for Methanesulfonic acid (%): limit ≤15.0-15.8%; for Content (%): should not be less than 78.0%
Method: 3. Accelerated Lofting Test
A sample of the crystal form B of the monomethanesulfonate of the compound shown in formula I was placed in a petri dish and was sampled and tested at 0 hour, 1 month, 2 months, 3 months, and 6 months respectively at a temperature of 40±2° C. and a relative humidity of 75%±5%, with the results shown in Table 1: […]

[3] = Long-term lofting experiments; conditions: 25±5° C., RH 60%±10%; for Loss on diying: limit ≤1.0; for Maximum individual impurity: limit ≤2.50; for Total impurity: limit ≤4.0%; for Methanesulfonic acid (%): limit ≤15.0-15.8%; for Content (%): should not be less than 78.0%
Method: 4. Long-Term Lofting Experiments
A sample of the crystal form B of the monomethanesulfonate of the compound shown in formula I was placed in a petri dish under the conditions of the temperature being 25±5° C. and the relative humidity being 60%±10% and was sampled and tested at 0 hour, 3 months, and 6 months respectively, with the results shown in Table 2: […]

DSC peak (stability of heat exchange range) [2]: a single peak value is observed
Compound: [2H]C([2H])([2H])N(C)CCN(C)c1cc(OC)c(Nc2nccc(-c3cn4c5c(cccc35)CCC4)n2)cc1NC(=O)C=C [crystal form A]
Crystal transformation (X-ray diffraction pattern) [1]: can be converted into the crystal form B of the monomethanesulfonate under the high-temperature or high-humidity condition; also recorded: converted to the crystal form B of the monomethanesulfonate at high temperature and high humidity

Loss on drying (Accelerated lofting test; 0 month): 0.08 | Maximum individual impurity (Accelerated lofting test; 0 month): 1.62 | Total impurity (Accelerated lofting test; 0 month): 2.55% | Methanesulfonic acid (%) (Accelerated lofting test; 0 month): 15.5% | Content (%) (Accelerated lofting test; 0 month): 80.5% | Loss on drying (Accelerated lofting test; 1 month): 0.03 | Maximum individual impurity (Accelerated lofting test; 1 month): 1.87 | Total impurity (Accelerated lofting test; 1 month): 3.12% | Methanesulfonic acid (%) (Accelerated lofting test; 1 month): 15.2% | Content (%) (Accelerated lofting test; 1 month): 82.2% | Loss on drying (Accelerated lofting test; 2 months): 0.03 | Maximum individual impurity (Accelerated lofting test; 2 months): 1.42 | Total impurity (Accelerated lofting test; 2 months): 2.72% | Methanesulfonic acid (%) (Accelerated lofting test; 2 months): 15.4% | Content (%) (Accelerated lofting test; 2 months): 82.3% | Loss on drying (Accelerated lofting test; 3 months): 0.03 | Maximum individual impurity (Accelerated lofting test; 3 months): 1.62 | Total impurity (Accelerated lofting test; 3 months): 2.72% | Methanesulfonic acid (%) (Accelerated lofting test; 3 months): 15.4% | Content (%) (Accelerated lofting test; 3 months): 79.5% | Crystal form by X-ray powder diffraction pattern compared with before the experiments (Accelerated lofting test; 6 months): the crystal form was not changed | Loss on drying (Accelerated lofting test; 6 months): 0.14 | Maximum individual impurity (Accelerated lofting test; 6 months): 1.61 | Total impurity (Accelerated lofting test; 6 months): 2.74% | Methanesulfonic acid (%) (Accelerated lofting test; 6 months): 15.4% | Content (%) (Accelerated lofting test; 6 months): 80.8% | Loss on diying ([3]; 0 month): 0.08 | Maximum individual impurity ([3]; 0 month): 1.62 | Total impurity ([3]; 0 month): 2.55% | Methanesulfonic acid (%) ([3]; 0 month): 15.5% | Content (%) ([3]; 0 month): 80.5% | Loss on diying ([3]; 3 months): 0.08 | Maximum individual impurity ([3]; 3 months): 1.65 | Total impurity ([3]; 3 months): 2.78% | Methanesulfonic acid (%) ([3]; 3 months): 15.4% | Content (%) ([3]; 3 months): 80.0% | Crystal form by X-ray powder diffraction pattern compared with before the experiments ([3]; 6 months): the crystal form was not changed | Loss on diying ([3]; 6 months): 0.6 | Maximum individual impurity ([3]; 6 months): 1.48 | Total impurity ([3]; 6 months): 2.50% | Methanesulfonic acid (%) ([3]; 6 months): 15.4% | Content (%) ([3]; 6 months): 82.3%
Compound: [2H]C([2H])([2H])N(C)CCN(C)c1cc(OC)c(Nc2nccc(-c3cn4c5c(cccc35)CCC4)n2)cc1NC(=O)C=C [crystal form B]
Change of all investigation items (Accelerated lofting test; up to 6 months): all investigation items have no obvious change | Change of all investigation items ([3]; up to 6 months): all investigation items have no obvious change
